The values that follow come from patent EP4792811A1, “S1PR4 REGULATOR COMPOUND FOR MUSCLE DISEASE TREATMENT AND APPLICATION THEREOF” (Shengyuan Zetong (Shanghai) Pharmaceutical Co., Ltd, priority 2023, dated 2025).

Numbering of substitutions follows the chain as printed. “Also recorded” adds a separate entry of the source.

The target of one experiment is T1, S1PR4 (Homo sapiens, UniProt O95977).
T1 construct: expressed in transfected cells; host or cells: 293T
T1 sequence (O95977 1-384): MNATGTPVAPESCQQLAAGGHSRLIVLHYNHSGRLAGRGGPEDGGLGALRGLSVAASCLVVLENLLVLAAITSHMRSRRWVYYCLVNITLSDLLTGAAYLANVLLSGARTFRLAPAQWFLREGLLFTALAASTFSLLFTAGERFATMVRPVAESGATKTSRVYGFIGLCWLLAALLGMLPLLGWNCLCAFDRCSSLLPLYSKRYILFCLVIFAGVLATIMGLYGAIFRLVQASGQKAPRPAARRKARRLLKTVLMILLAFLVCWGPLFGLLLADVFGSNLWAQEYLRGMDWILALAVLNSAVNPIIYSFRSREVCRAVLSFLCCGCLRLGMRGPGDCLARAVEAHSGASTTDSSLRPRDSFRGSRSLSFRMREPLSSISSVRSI
Nature of the experiment: S1PR4 internalization function test in S1PR4-293T cells. The class given is cell-based. As to conditions: 1 µM, 37 °C, 1.5 hours; detected immediately, or at 5 hours or 20 hours after treatment. The procedure: Therefore, the recovery degree of S1PR4 after internalization caused by Compound 30 was evaluated, and the recovery effect following receptor internalization caused by Compound 30 was assessed in cells with high S1PR4 expression.

For another experiment, the system named is LPS-induced sepsis model. Nature of the experiment: LPS-induced sepsis myopathy (skeletal muscle atrophy) model. The class given is in vivo, mice. As to conditions: 14 days of LPS treatment. The source says:
Animal models of sepsis can be established by injecting exogenous toxins into animals. In this study, a sepsis model was established via intraperitoneal injection of lipopolysaccharide to observe the effects of compounds on the occurrence and development of acquired weakness. This is a widely used method for modeling sepsis.
A skeletal muscle atrophy model induced by lipopolysaccharide can simulate clinical muscle atrophy caused by sepsis.
Mice were given a single intraperitoneal injection of LPS (1 mg/kg), followed by 14 consecutive days of intraperitoneal injection of either vehicle (1% DMSO dissolved in physiological saline) or Compound 30. Body weight was measured daily. After 14 days of LPS treatment, the mice were anesthetized, and the gastrocnemius and tibialis anterior muscles were harvested.

Experiment [1] deals with Duchenne muscular dystrophy model mice. As to the kind of experiment: In vivo efficacy in Duchenne muscular dystrophy mdx mice (Compound 67). As to conditions: for rotarod time: Day 42; for rotarod time / grip strength: compared with the model group; for grip strength: after 42 days of treatment. How it is done:
Experimental animals: A total of 18 Duchenne muscular dystrophy model mice were divided into 3 groups with 6 mice in each group.
Intragastric administration was initiated on Day 0. Body weight was measured daily during the period to adjust the drug dosage. Grip strength and rotarod tests were performed on Day 20 and Day 42. Changes in the limb grip strength, exercise duration, and muscle fibrosis/inflammation in mice were detected as indicators for evaluating drug efficacy.
The mouse was placed horizontally on the grip test board. The mouse's tail was held and pulled gently in the opposite direction without using excessive force. The tail was gradually pulled until the mouse released the grip force sensor. The maximum value recorded by the grip force sensor is the grip strength. The test was repeated for 3 times and the average value was taken.
The rotarod test was conducted on Day 0, Day 20, and Day 42 respectively. The test was performed at an accelerating speed (0-16 rpm), reaching the maximum speed after 300 seconds, with a maximum test duration of 600 seconds. The time until the animal fell off was recorded^7.
After the experiment, the tibialis anterior, extensor digitorum longus, and diaphragm of the mice were harvested, fixed, sectioned, and subjected to HE staining and Sirius Red staining to observe the degree of muscle fibrosis.

The next experiment has as its target T2, hS1P4-R-79C (Homo sapiens, UniProt O95977, R79C).
T2 construct: expressed in transfected cells; host or cells: CHO
T2 sequence (O95977 1-384 R79C): T1 sequence (O95977 1-384) with R79C
As to the kind of experiment: Tango β-arrestin recruitment assay, Tango-hS1P4-R-79C-CHO. The class given is cell-based. As to conditions: final concentration 45 µM, 9 serial dilutions at 5-fold intervals; 20 h drug treatment; luciferase readout. The source says: (§1) The Tango assay detects ligand-dependent GPCR activity through the interaction between β-arrestin and GPCRs. […] The NTEV fragment and the tetracycline transactivator (tTA), an artificial transcription factor, are fused at the C-terminus of the GPCR, while the CTEV fragment is fused to human β-arrestin 2. To enhance the stability of the interaction between GPCR and β-arrestin, a short sequence from the C-terminus of the human arginine vasopressin receptor 2 (V2 tail) is inserted between the GPCR and NTEV. The V2 tail contains multiple GRK phosphorylation sites, which strengthen β-arrestin binding upon phosphorylation. The CTEV fragment carries the stabile point mutation S219P and is truncated at residue 221 to remove the autoinhibitory C-terminal tail. Meanwhile, β-arrestin 2 is truncated to lack the entire C-terminal tail (residues 383-410 deleted). This truncation confers robust stimulus-dependent receptor desensitization, thereby improving detection sensitivity compared with wild-type β-arrestin 2. The UAS reporter construct consists of upstream activating sequence (UAS) elements, a minimal CMV promoter, and a tTA-dependent luciferase reporter gene. Therefore, constructing Tango cells requires the co-transfection of the above three plasmids into host cells. Upon GPCR activation and β-arrestin recruitment, the TEV enzyme at the β-arrestin terminus cleaves tTA from the GPCR C-terminus. The released tTA initiates tTA-dependent luciferase transcription, and compound activity is ultimately determined by measuring luminescence intensity.
(§2) • 1) Tango cell line from was digested from the culture dish respectively. After cell counting, the cells were plated at a density of 10,000 cells per well with […] into a white opaque 96-well plate (add 60 µL D'Hanks to the surrounding wells), and incubated overnight (20 h) in a 5% CO2 incubator at 37°C. The cell density will reach approximately 90% the next day. • 2) After 20 h, 30 µL of serially diluted compound solution was added to each well. The control group was supplemented with 30 µL F12K complete medium. Each group had three replicate wells. • 3) Samples were collected after 20 h of drug treatment.
(§3) (All compounds were tested at a final concentration of 45 µM, with 9 serial dilutions at 5-fold intervals. 1 µM BAF-312 was used as the positive control for S1PR1, and 25 µM BAF-312 was used as the positive control for S1PR4.)

A further experiment deals with T3, hS1P4 (Homo sapiens, UniProt O95977).
T3 construct: expressed in transfected cells; host or cells: CHO-K1
T3 sequence (O95977 1-384): T1 sequence (O95977 1-384)
As to the kind of experiment: Tango β-arrestin recruitment assay, Tango-hS1P4-CHO. The class given is cell-based. As to conditions: final concentration 45 µM, 9 serial dilutions at 5-fold intervals; 20 h drug treatment; luciferase readout.
Description: as §1, §2, §3
(§4) ^a β-arrestin recruitment activity based on Tango-S1PR1-CHO-K1 and Tango-S1PR4-CHO-K1 cells, expressed as mean EC50 values ± SD. ^b FLIPR assays were performed using S1PR2-CHO and S1PR5-CHO cell lines, expressed as mean EC50 values ± SD. ^c β-arrestin recruitment activity based on PathHunter CHO-K1-S1PR3 cells, expressed as mean EC50 values ± SD. Data are the mean of at least two independent determinations, reported as mean ± SD (standard deviation).

The next experiment deals with T4, hS1P1 (Homo sapiens, UniProt P21453).
T4 construct: expressed in transfected cells; host or cells: CHO-K1
As to the kind of experiment: Tango β-arrestin recruitment assay, Tango-hS1P1-CHO. The class given is cell-based. As to conditions: final concentration 45 µM, 9 serial dilutions at 5-fold intervals; 20 h drug treatment; luciferase readout.
Description: as §1, §2, §3, §4

Where [2] appears, read: 3 mg/kg intragastric once daily.
[3] abbreviates: 20 mg/kg intragastric once daily.

T4 sequence (P21453 whole entry): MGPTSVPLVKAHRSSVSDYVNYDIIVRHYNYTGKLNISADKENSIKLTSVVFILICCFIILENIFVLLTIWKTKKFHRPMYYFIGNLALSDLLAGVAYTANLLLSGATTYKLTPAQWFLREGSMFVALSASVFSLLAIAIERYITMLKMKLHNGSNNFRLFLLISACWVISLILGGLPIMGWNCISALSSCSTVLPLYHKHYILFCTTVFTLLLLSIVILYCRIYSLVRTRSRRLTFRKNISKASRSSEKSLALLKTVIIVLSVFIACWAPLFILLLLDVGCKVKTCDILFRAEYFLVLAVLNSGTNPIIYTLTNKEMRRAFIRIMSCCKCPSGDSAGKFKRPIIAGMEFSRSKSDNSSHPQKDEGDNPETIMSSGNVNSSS

For the compound `CCc1cc(/C(C)=N/OCc2ccc(-c3cnc(F)cn3)c(C)c2)ccc1CN1CC[C@H](C(=O)O)C1` [Compound 67, (S, E)-1-(2-ethyl-4-(1-(((4-(5-fluoropyrazin-2-yl)-3-methylbenzyl)oxy)imino)ethyl)benzyl)pyrrolidine-3-carboxylic acid], the “S1PR4 internalization (expression of S1PR4 receptor on the cell surface)” value on S1PR4 is “sustained internalization capacity”. Moreover, in the experiment on LPS-induced sepsis model (high dose (Compound 30: 10mg/kg intraperitoneal once daily)), the “atrophy of the tibialis anterior muscle” value was “significantly inhibited”. Besides, the “atrophy of the tibialis anterior muscle” value in the experiment on LPS-induced sepsis model (medium dose (Compound 30: 1mg/kg intraperitoneal once daily)) was “significantly inhibited”. In addition, in experiment [1] (setting [2]), the “collagen deposition (collagen area ratio)” value is given as “significantly reduced collagen deposition”; the “macrophage levels (F4/80 macrophage marker, muscle inflammation)” value was “significantly reduced macrophage levels”; the “number of centrally nucleated fibers (HE staining)” value is listed as “significantly reduced”; the “serum creatine kinase level” value is listed as “significantly reduced the creatine kinase level”. Moreover, in experiment [1] (setting [2]), the rotarod time entry is “increased” and the grip strength result is listed as “marked increase; also recorded: significantly elevated”. Further, in experiment [1] (3 mg/kg intragastric once daily, listed as compound 67), the grip strength result is reported as “increased significantly”.
For the compound `C/C(=N\OCc1ccc(C2CCCCC2)c(C(F)(F)F)c1)c1ccc(CNCCC(=O)O)cc1` [Compound 10, (E)-3-((4-((1-((4-cyclohexyl-3-(trifluoromethyl)benzyl)oxy)imino)ethyl)benzyl)amino)propanoic acid], the EC50 came out at 160 ± 4.9 nM at hS1P4-R-79C and 262 ± 37.3 nM on hS1P4.
Consider `CCCCCCCCCCCCC/C=C/[C@@H](O)[C@@H](N)COP(=O)(O)O` [Compound S1P, sphingosine 1-phosphate, reference compound], for which the “S1PR4 internalization (expression of S1PR4 receptor on the cell surface)” value on S1PR4 is listed as “can induce S1PR4 internalization”.
On to `C/C(=N\OCc1ccc(C2CCCCC2)c(C(F)(F)F)c1)c1ccc(CN2CC(C(=O)O)C2)c(C)c1` [Compound 18], for which the values for the EC50 at hS1P1, at hS1P4-R-79C and at hS1P4 were 2.95 ± 0.69 nM, 63.1 ± 21.8 nM and 266 ± 62.8 nM, respectively.
Consider `C[C@@H]1C[C@H]2[C@@H]3CCC4=CC(=O)C=C[C@]4(C)C3=CC[C@]2(C)[C@@]1(O)C(=O)CO` [Vamorolone, reference compound], for which, in experiment [1] (setting [3]), the “collagen deposition (collagen area ratio)” value was “significantly reduced collagen deposition”; the “macrophage levels (F4/80 macrophage marker, muscle inflammation)” value is “significantly reduced macrophage levels”; the “number of centrally nucleated fibers (HE staining)” value is reported as “significantly reduced”; the “serum creatine kinase level” value is listed as “significantly reduced the creatine kinase level”. Moreover, in experiment [1] (setting [3]), the rotarod time entry is given as “increased” and the grip strength result is “increased significantly; also recorded: marked increase; also recorded: significantly elevated”.
As for `CCc1cc(/C(C)=N/OCc2ccc(C3CCCC3)c(C(F)(F)F)c2)ccc1CN1CC(C(=O)O)C1` [Compound 17], the concentration giving a half-maximal response (EC50) is 2.21 ± 0.58 nM on hS1P1 and 95.6 ± 42.1 nM at hS1P4-R-79C.
Consider `C/C(=N\OCc1ccc(C2CCCCC2)c(C(F)(F)F)c1)c1ccc(CN2CC(C(=O)O)C2)c(C(F)(F)F)c1` [Compound 19], for which the 50% effective concentration (EC50) at hS1P1 came to 8.63 ± 0.39 nM; on hS1P4-R-79C, 121 ± 30.4 nM; on hS1P4 it was 564 ± 184 nM.
In the case of `CCc1cc(/C(C)=N/OCc2ccc(-c3ccccc3)c(C)c2)ccc1CNCCCC(=O)O` [Compound 32, (E)-4-((2-ethyl-4-(1-((2-methyl-[1,1'-biphenyl]-4-yl)methoxy)imino)ethyl)benzyl)aminobutyric acid], it took 110 ± 6.85 nM to reach a half-maximal effect on hS1P4-R-79C (EC50).
